From patent publication US20140343017A1, “PYRROLE COMPOUND” (Kabushiki Kaisha Yakult Honsha, priority 2012, published 2014)

Legend:
[1] = test system: human colorectal cancer HCT116 cells; experiment: Inhibitory effect on growth of human cancer cells (in vitro), WST-8; assay type: cell-based; settings: Homo sapiens, HCT-116, 96 h, 96 hours culture
How it was run: (§1)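 Cells seeded at 1000 cells/well in RPMI1640 with 10% FBS, compounds added after overnight culture, then 96 h exposure. Viability by WST-8, about 1 h at 37 °C, 5% CO2, absorbance read at 450 nm.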

[2] = test system: human colorectal cancer HT-29 cells; experiment: as above; assay type: cell-based; settings: Homo sapiens, HT-29, 96 h, 96 hours culture, read-out: IC50 (nM) HT29
How it was run: as §1

[3] = test system: human non-small cell lung cancer A549 cells; experiment: as above; assay type: cell-based; settings: Homo sapiens, A549, 96 h, 96 hours culture
How it was run: as §1

[4] = test system: Human uterus cancer MES-SA cells; experiment: Inhibitory effect on growth of multidrug-resistant cell line, parent line (in vitro); assay type: cell-based; settings: 48 hours culture, WST-8
Excerpt: (§2) Each compound of the present invention was studied for its effect on the growth of a multidrug-resistant cell line. A drug efflux pump called P-glycoprotein is well known to be involved in the drug resistance mechanism of the multidrug-resistant line MES-SA/Dx5 used in this experiment. Accordingly, in this experiment, paclitaxel and vincristine, which are proven substrates of P-glycoprotein, were used as control drugs. Human uterus cancer MES-SA cells and their multidrug-resistant line MES-SA/Dx5 cells were suspended in a medium and inoculated at a cell density of 2000 cells/50 μL/well to a 96-well plate. After overnight culture, each test sample diluted with a medium was added thereto at a concentration of 50 μL/well, and the cells were further cultured for 48 hours. After the completion of culture, WST-8 was added thereto at a concentration of 10 μL/well, and the cells were cultured at 37° C. for approximately 1 hour under 5% CO2 conditions, followed by measurement of absorbance at a wavelength of 450 nm. […] The resistance rate was calculated according to the following expression:
(§3) Resistance rate=IC50 value (MES-SA/Dx5)/IC50 value (MES-SA)

[5] = test system: multidrug-resistant line MES-SA/Dx5 cells; experiment: Inhibitory effect on growth of multidrug-resistant cell line (in vitro); assay type: cell-based, human; settings: for IC50: Homo sapiens, MES-SA/Dx5 cells, 48 hours culture, WST-8; for Resistance rate: IC50 value (MES-SA/Dx5)/IC50 value (MES-SA)
Excerpt: as §2, §3

[6] = test system: human lung cancer NCI-H460 xenograft tumor; experiment: Antitumor effect on growth of human lung cancer NCI-H460 xenograft tumor (in vivo); design: species or system BALB/c nude mice; settings: Mus musculus, NCI-H460, iv, 528 h, tail vein, excised tumor weight Day 22, read-out: Inhibition Rate (%)
Protocol: Each compound of the present invention was studied for its in vivo antitumor effect using human lung cancer NCI-H460 cell-transplanted mice. An NCI-H460 cell suspension containing 2×10^6 cells was subcutaneously transplanted in an amount of 0.1 mL/mouse to the left groin areas of 6-week-old male BALB/c nude mice. The mice were further raised for approximately 1 week to 10 days and divided into groups (4 mice per group) having equal estimated tumor volumes at the point in time when the tumor size reached approximately 100 to 200 mm^3 (Day 1). Each administration sample was administered at a dose of 10 mL/kg into the tail vein of the mice. The dose and administration schedule of each compound were as described in Table 3. At Day 22, tumor was excised from each mouse. The tumor growth inhibition rate (IR: Inhibition Rate) was calculated from the weight of the excised tumor according to the expression shown below. The Dunnett's test was used in the significant difference test.
Tumor growth inhibition rate (Inhibition Rate, %)=(1−(Excised tumor weight of the administration group)/(Excised tumor weight of the control group))×100

[7] = test system: Human non-small cell lung cancer NCI-H460 cells; experiment: Inhibitory effect on growth of PTX-resistant tumor cell line, parent line (in vitro); assay type: cell-based; settings: 96 hours culture, WST-8
Protocol: Each compound of the present invention was studied for its effect on the growth of a tumor cell line having a PTX resistance mechanism different from that attributed to the high expression of P-glycoprotein. Human non-small cell lung cancer NCI-H460 cells were exposed to 1 nM paclitaxel (PTX) and 10 μM verapamil at the same time. Only the PTX concentration was increased to 2, 3, 4, 5, and 7 nM in order over approximately 6 months to establish PTX-resistant H460/PV2-7 cells (PV2-7). […] As for the PTX resistance mechanism different from that attributed to the high expression of P-glycoprotein, an isotype called Class III β-tubulin (TUBB3), which is one isotype of […], has been reported to be highly expressed in PTX-resistant established lines in vitro or in clinical samples from patients having resistance to PTX therapy.
The PV2-7 cells and the parent line NCI-H460 cells were suspended in a medium and inoculated at a cell density of 1000 cells/50 μL/well to a 96-well plate. After overnight culture, each compound diluted 2-fold (final concentration) was added thereto at a concentration of 50 μL/well, and the cells were cultured for 96 hours. After the completion of culture, WST-8 (Seikagaku Corp.) was added thereto at a concentration of 10 μL/well, and the cells were cultured at 37° C. for approximately 1 hour under 5% CO2 conditions, followed by measurement of absorbance at 450 nm.

[8] = test system: PV2-7 xenograft tumor; experiment: Antitumor effect on growth of PV2-7 xenograft tumor (in vivo); design: species or system BALB/c nude mice; settings: tail vein, once a week, three times in total (Days 1, 8, and 15); FIG. 5
Protocol: The mice were further raised for approximately 1 week to 10 days and divided into groups (4 or 5 mice per group) having equal estimated tumor volumes at the point in time when the tumor size reached approximately 100 to 200 mm^3 (Day 1). Each administration sample was administered at a dose of 10 mL/kg into the tail vein of the mice. In an administration schedule, each sample was administered once a week, three times in total (Days 1, 8, and 15).

Structure (SMILES)	IC50 [1] [nM]	IC50 [2] [nM]	IC50 [3] [nM]	IC50 [4] [nM]	IC50 [5] [nM]	Resistance rate [5]	inhibition in vivo at 50 mg/kg ([6]; 50 mg/kg, Days 1, 3, 5, 8, 10, 12, 15, 17, 19) [%]	inhibition in vivo at 100 mg/kg ([6]; 100 mg/kg, Days 1, 5, 9) [%]	IC50 [7] [nM]	antitumor effect on PV2-7 cell-transplanted mice [8]	inhibition in vivo at 60 mg/kg ([6]; 60 mg/kg, Days 1, 3, 5, 8, 10, 12, 15, 17, 19) [%]	inhibition in vivo at 120 mg/kg ([6]; 120 mg/kg, Days 1, 8, 15) [%]	inhibition in vivo at 140 mg/kg ([6]; 140 mg/kg, Days 1, 8, 15) [%]
Cc1c(-c2nnn(CCO)n2)[nH]c(C(C)O)c1C(=O)c1cccc(Br)c1 (stereo not drawn) [Compound 123, (3-bromophenyl)(2-(1-hydroxyethyl)-5-(2-(2-hydroxyethyl)-2H-tetrazol-5-yl)-4-methyl-1H-pyrrol-3-yl)methanone]	46.1	39.5	326	63.3	135	2.1	58.2	56.5	68.8	–	–	–	–
CC(=O)O[C@H]1C(=O)[C@@]2(C)[C@H]([C@H](OC(=O)c3ccccc3)[C@]3(O)C[C@H](OC(=O)[C@H](O)[C@@H](NC(=O)c4ccccc4)c4ccccc4)C(C)=C1C3(C)C)[C@]1(OC(C)=O)CO[C@@H]1C[C@@H]2O [Paclitaxel, paclitaxel, reference compound]	–	–	–	15.2	3700	243.3	–	–	3.5	hardly effective	–	–	–
Cc1c(-c2nnn(CCO)n2)[nH]c(CO)c1C(=O)c1cccc(Br)c1 [Compound 121, (3-bromophenyl)(5-(2-(2-hydroxyethyl)-2H-tetrazol-5-yl)-2-(hydroxymethyl)-4-methyl-1H-pyrrol-3-yl)methanone]	43.5	43.8	122	49.8	88.4	1.8	–	–	76.2	–	60.6	75.5	–
CC(=O)O[C@@]12CO[C@@H]1C[C@H](O)[C@@]1(C)C(=O)[C@H](O)C3=C(C)[C@@H](OC(=O)[C@H](O)[C@@H](NC(=O)OC(C)(C)C)c4ccccc4)C[C@@](O)([C@@H](OC(=O)c4ccccc4)[C@H]21)C3(C)C [Docetaxel, docetaxel]	–	–	–	–	–	–	–	–	1.5	–	–	–	–
CO[C@H]1C(=O)[C@]2(C)[C@@H](OC)C[C@H]3OC[C@@]3(OC(C)=O)[C@H]2[C@H](OC(=O)c2ccccc2)[C@]2(O)C[C@H](OC(=O)[C@H](O)[C@@H](NC(=O)OC(C)(C)C)c3ccccc3)C(C)=C1C2(C)C [Cabazitaxel, cabazitaxel]	–	–	–	–	–	–	–	–	1.3	–	–	–	–
CNC(=O)c1[nH]c(-c2nnn(CCO)n2)c(C)c1C(=O)c1cccc(Br)c1 [Compound 142, 3-(3-bromobenzoyl)-5-(2-(2-hydroxyethyl)-2H-tetrazol-5-yl)-N,4-dimethyl-1H-pyrrole-2-carboxamide]	194	176	257	238	656	2.8	–	–	374	–	–	–	73.8
